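All cell lines were grown in 96-well plates and treated with compound for 48 hours. The concentration for 50% growth inhibition is given as GI50. TGI marks complete inhibition of growth.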
Legend:
Experiment in all cases: growth of human tumour cells (NCI), 48 h
SW-620 colon = system: SW-620 colon
NCI-H226 lung = system: NCI-H226 lung
OVCAR-5 ovarian = system: OVCAR-5 ovarian
SNB-75 CNS = system: SNB-75 CNS
CCRF-CEM leukemia = system: CCRF-CEM leukemia
BT-549 breast = system: BT-549 breast
HT29 colon = system: HT29 colon
HS 578T breast = system: HS 578T breast
KM12 colon = system: KM12 colon
OVCAR-8 ovarian = system: OVCAR-8 ovarian
NCI-H23 lung = system: NCI-H23 lung
MALME-3M melanoma = system: MALME-3M melanoma
MDA-MB-435 = system: MDA-MB-435
TK-10 renal = system: TK-10 renal
RXF 393 renal = system: RXF 393 renal
LOX IMVI melanoma = system: LOX IMVI melanoma
CAKI-1 renal = system: CAKI-1 renal
SF-295 CNS = system: SF-295 CNS
HOP-62 NSCLC = system: HOP-62 NSCLC
HCT-15 colon = system: HCT-15 colon
A498 renal = system: A498 renal
HCT-116 colon = system: HCT-116 colon
ACHN renal = system: ACHN renal
SR leukemia = system: SR leukemia
COLO 205 colon = system: COLO 205 colon
SNB-19 CNS = system: SNB-19 CNS
RPMI-8226 leukemia = system: RPMI-8226 leukemia
HOP-92 NSCLC = system: HOP-92 NSCLC
UACC-257 melanoma = system: UACC-257 melanoma

## Clc1ccccc1-c1nc2ccccc2[nH]1
SW-620 colon
  GI50: > 100 µM
  TGI: > 100 µM
NCI-H226 lung
  GI50: > 100 µM
  TGI: > 100 µM
OVCAR-5 ovarian
  GI50: > 100 µM
  TGI: > 100 µM
SNB-75 CNS
  GI50: > 100 µM
  TGI: > 100 µM
CCRF-CEM leukemia
  GI50: > 100 µM
  TGI: > 100 µM
BT-549 breast
  GI50: > 100 µM
  TGI: > 100 µM
HT29 colon
  GI50: > 100 µM
  TGI: > 100 µM
HS 578T breast
  GI50: > 100 µM
  TGI: > 100 µM
KM12 colon
  GI50: 85.2 µM
  TGI: > 100 µM
OVCAR-8 ovarian
  GI50: > 100 µM
  TGI: > 100 µM
NCI-H23 lung
  GI50: > 100 µM
  TGI: > 100 µM
MALME-3M melanoma
  GI50: > 100 µM
  TGI: > 100 µM
MDA-MB-435
  GI50: > 100 µM
  TGI: > 100 µM
TK-10 renal
  GI50: > 100 µM
  TGI: > 100 µM
RXF 393 renal
  GI50: > 100 µM
  TGI: > 100 µM
LOX IMVI melanoma
  GI50: > 100 µM
  TGI: > 100 µM
CAKI-1 renal
  GI50: > 100 µM
  TGI: > 100 µM
SF-295 CNS
  GI50: 43.3 µM
  TGI: > 100 µM
HOP-62 NSCLC
  GI50: > 100 µM
  TGI: > 100 µM
HCT-15 colon
  GI50: > 100 µM
  TGI: > 100 µM
A498 renal
  GI50: 59.2 µM
  TGI: > 100 µM
HCT-116 colon
  GI50: > 100 µM
  TGI: > 100 µM
ACHN renal
  GI50: > 100 µM
  TGI: > 100 µM
SR leukemia
  GI50: > 100 µM
  TGI: > 100 µM
COLO 205 colon
  GI50: > 100 µM
  TGI: > 100 µM
SNB-19 CNS
  GI50: > 100 µM
  TGI: > 100 µM
RPMI-8226 leukemia
  GI50: 94 µM
  TGI: > 100 µM
HOP-92 NSCLC
  GI50: 42.1 µM
  TGI: > 100 µM
UACC-257 melanoma
  GI50: > 100 µM
  TGI: > 100 µM
